The results in this text go back to PMC9416004, “A Versatile Class of 1,4,4-Trisubstituted Piperidines Block Coronavirus Replication In Vitro” (Pharmaceuticals, 2022).

In series [1] the test system is HCoV-229E. Put plainly: Cytopathic effect (CPE) reduction assay with HCoV-229E in HEL cells. In kind it is cell-based, human coronavirus 229E. To be noted: for EC50: Human coronavirus 229E, 120 h; for Selectivity Index MTS: ratio of CC50 to EC50-MTS; for Selectivity Index MTS / Selectivity Index Microscopy: only values of 10 or higher shown; for Selectivity Index Microscopy: ratio of MCC to EC50-microscopy.

The target of series [2] is SARS-CoV-2 nsp5 main protease (M^pro) (Severe acute respiratory syndrome coronavirus 2, UniProt P0DTD1). Description: FRET-based M^pro enzymatic assay. As to conditions: for IC50 on SARS-CoV-2 M^pro enzyme activity: 80 nM nsp5, 5 μM Dabcyl-KTSAVLQSGFRKM-Edans-NH2 substrate, mean ± SEM (N = 3). In kind it is biochemical. The protocol: Serial dilutions of the compounds were incubated with purified nsp5 protein in the presence of substrate (Dabcyl-KTSAVLQ↓SGFRKM-Edans-NH2), and peptide cleavage was followed by an increase in fluorescence. The compounds’ IC50 values were determined by Hill curve fitting. Values are the mean ± SEM (N = 3).
After transforming the pGEX-6P-1 plasmid in E. coli BL21 DE3 gold, nsp5 production was stimulated by overnight induction with 250 μM IPTG at a temperature of 17 °C. After centrifugation, the bacteria were resuspended in buffer consisting of: 50 mM Tris pH 8; 300 mM NaCl; 5 mM MgSO4; 1 mM PMSF; 10 μg/mL DNAse I; 0.25 mg/mL Lysozyme; 0.1%Triton X-100; and 10% glycerol. The cells were lysed by three cycles of sonication and centrifugation. The nsp5 protein was bound to Co-NTA agarose beads and eluted in lysis buffer containing 250 mM of imidazole. Next, the protein product was concentrated on a Vivaspin 20 centrifugal concentrator (10 kDa cut-off; GE Healthcare) and imidazole was removed by dialysis. Finally, the purified nsp5 was stored at −80 °C with 50% glycerol.
M^pro enzymatic assay. The fluorescence resonance energy transfer (FRET)-based protease assay was performed in black 384-well plates. Briefly, serial dilutions of the compounds were incubated with 80 nM nsp5 protein and 5 μM peptide substrate (Dabcyl-KTSAVLQ↓SGFRKM-Edans-NH2; Genscript) in buffer consisting of: 20 mM HEPES pH 6.5; 120 mM NaCl; 0.4 mM EDTA; 4 mM dithiothreitol; and 10% glycerol. The final DMSO content was 0.5%. Cleavage of the substrate was monitored for 40 min by measuring the increasing fluorescence in a Tecan Safire 2 plate reader (wavelength settings: excitation at 335 nm and emission at 493 nm). For each condition, enzyme activity was derived from the slope for the linear part of the curve and expressed relative to the activity in the condition receiving no compound. To determine the IC50 values, GraphPad Prism software was used to plot the % of enzyme activity against compound concentration and then fit the curves according to the equation Y = 100/(1 + (X/IC50)^HillSlope).

Series [3] deals with human embryonic lung (HEL) fibroblast cells. To be noted: mock-infected HEL cells; microscopically visible alterations in cell morphology.
A short description of another series: in vitro. To be noted: human.
In the next series the test system is SARS-CoV-2. Put plainly: RT-qPCR-based SARS-CoV-2 viral load reduction assay in A549-AT cells. Format: cell-based. Background: In qPCR the cycle at which signal appears reflects the starting amount.
For series [4], the system named is HCoV-229E. Description: One-cycle time-of-compound addition (TOA) assay with HCoV-229E in HEL cells. In kind it is cell-based, human coronavirus 229E.
Setting [5] is: HCoV-229E-infected HEL cells, protection against virus-induced CPE by MTS cell viability assay, five days at 35 °C, read-out: Antiviral EC50 MTS.
[6] abbreviates: HCoV-229E-infected HEL cells, protection against virus-induced CPE by microscopic scoring, five days at 35 °C, read-out: Antiviral EC50 Microscopy.

Like-named read-outs stand apart in the source and are kept apart here. Some results are limits rather than exact numbers.

Take `COC(=O)C[C@H](NC(=O)OC(C)(C)C)C(=O)N(Cc1ccccc1)C1(C(=O)NCc2ccccc2)CCN(Cc2ccccc2)CC1` [Compound 1]: the “Antiviral EC50 MTS” value in the series on HCoV-229E [1] (HCoV-229E-infected HEL cells, protection against virus-induced CPE by MTS cell viability assay, five days at 35 °C) was “no activity”. Moreover, the EC50 with HCoV-229E [1] (setting [5]) and in the series with HCoV-229E [1] (setting [6]) was above 100 µM in each case. This molecule registered an IC50 in series [2] of 161 ± 35 µM. Also, the “IC50 on SARS-CoV-2 M^pro enzyme activity” value in series [2] is “only marginal activity”. Also, the “Cytotoxicity MCC (minimal cytotoxic concentration)” value (shortened to “Cytotoxicity MCC”) in series [3] is given as above 100 µM. The CC50 in “in vitro” was above 100 µM.
`CC(C)(C)OC(=O)N[C@@H](Cc1ccccc1)C(=O)N(Cc1ccc(F)cc1)C1(C(=O)NCc2ccccc2)CCN(Cc2ccccc2)CC1` [Compound 45]: the EC50 in the series on HCoV-229E [1] (setting [5]) amounted to 1.1 ± 0.2 µM; with HCoV-229E [1] (setting [6]), 0.85 ± 0.07 µM. The molecule further gave an IC50 in series [2] of 15 ± 2 µM. Moreover, the “Cytotoxicity MCC” value in series [3] came to 50 µM. The molecule also gave a CC50 in the series “in vitro” of 4.4 ± 0.8 µM.
As to `CC(C)(C)OC(=O)N[C@@H](Cc1ccccc1)C(=O)N(Cc1ccccc1)C1(C(=O)NCc2ccccc2)CCN(Cc2ccccc2)CC1` [Compound 46], the 50% effective concentration (EC50) in the series on HCoV-229E [1] (setting [5]) stood at 4.5 ± 0.2 µM. Moreover, the EC50 with HCoV-229E [1] (setting [6]) worked out at 7.4 ± 1.3 µM. In the series on HCoV-229E [1], the “Selectivity Index MTS” value is listed as 17 and the “Selectivity Index Microscopy” value is reported as at least 14. Moreover, the IC50 in series [2] was 22 ± 2 µM. Besides, the “Cytotoxicity MCC” value in series [3] is reported as at least 100 µM. Besides, the CC50 in the series “in vitro” amounted to 75 µM.
As to `Cc1ccc(CC(NC(=O)OC(C)(C)C)C(=O)N(Cc2ccccc2)C2(C(=O)NCc3ccccc3)CCN(Cc3ccccc3)CC2)cc1` (stereo not drawn) [Compound 52, Tert-butyl(1-(benzyl(1-benzyl-4-benzylcarbamoylpiperidin-4-yl)amino)-1-oxo-3-(p-tolyl)propan-2-yl)carbamate], the values for the EC50 with HCoV-229E [1] (setting [5]) and in the series on HCoV-229E [1] (setting [6]) were 4.7 ± 0.6 µM and 6.6 ± 1.8 µM, respectively. In the series on HCoV-229E [1], the “Selectivity Index MTS” value is given as above 21. Further, in the series on HCoV-229E [1], the “Selectivity Index Microscopy” value is given as at least 15. For the same molecule, the “Antiviral activity EC99” value in the series on SARS-CoV-2 (100-fold reduction in viral RNA copies in supernatant at day 3 p.i.) is given as 3.9 µM. Besides, the EC90 with SARS-CoV-2 (Severe acute respiratory syndrome coronavirus 2, 72 h, 10-fold reduction in viral RNA copies in supernatant at day 3 p.i., read-out: Antiviral activity EC90) was 1.7 µM. The same molecule registered an IC50 in series [2] of 14 ± 4 µM. The “Cytotoxicity MCC” value in series [3] was at least 100 µM.
For the molecule `COC(=O)C[C@H](NC(=O)OCc1ccccc1)C(=O)N(Cc1ccccc1)C1(C(=O)NCc2ccccc2)CCN(CCc2ccccc2)CC1` [Compound 53, Methyl(S)-4-(benzyl(4-benzylcarbamoyl-1-phenethylpiperidin-4-yl)amino)-3-benzyloxycarbonylamino-4-oxobutanoate], the results for the concentration giving a half-maximal response (EC50) in the series with HCoV-229E [1] (setting [5]) and in the series with HCoV-229E [1] (setting [6]) were 5.8 ± 1.9 µM and 6.1 ± 2 µM, respectively. In series [3], the “Cytotoxicity MCC” value worked out at 40 µM. For the same molecule, in the series “in vitro”, the CC50 turned out to be 24 ± 2 µM.
For `COC(=O)C[C@H](NC(=O)OCc1ccccc1)C(=O)N(Cc1ccccc1)C1(C(=O)NCc2ccccc2)CCN(CCc2ccc(C)cc2)CC1` [Compound 54, Methyl(S)-4-(benzyl(4-benzylcarbamoyl-1-(4-methylphenethyl)piperidin-4-yl)amino)-3-benzyloxycarbonylamino-4-oxobutanoate] the same measures were 8.4 ± 0.5 µM, 10 µM, 40 µM and 24 ± 2 µM.
Consider `COC(=O)C[C@H](NC(=O)OCc1ccccc1)C(=O)N(Cc1ccccc1)C1(C(=O)NCc2ccccc2)CCN(CCc2ccc([N+](=O)[O-])cc2)CC1` [Compound 55, Methyl(S)-4-(benzyl(4-benzylcarbamoyl-1-(4-nitrophenethyl)piperidin-4-yl)amino)-3-benzyloxycarbonylamino-4-oxobutanoate], for which the EC50 in the series on HCoV-229E [1] (setting [5]) turned out to be 7.7 ± 0.9 µM; with HCoV-229E [1] (setting [6]), 10 µM. The “Selectivity Index MTS” value in the series with HCoV-229E [1] was above 13. Besides, in series [3], the “Cytotoxicity MCC” value turned out to be 60 µM. Also, the CC50 in the series “in vitro” was above 100 µM.
On to `COC(=O)C[C@H](NC(=O)OCc1ccccc1)C(=O)N(Cc1ccccc1)C1(C(=O)NCc2ccccc2)CCN(CCc2ccc(F)cc2)CC1` [Compound 56, Methyl(S)-4-(benzyl(4-benzylcarbamoyl-1-(4-fluorophenethyl)piperidin-4-yl)amino)-3-benzyloxycarbonylamino-4-oxobutanoate], for which the EC50 in the series on HCoV-229E [1] (setting [5]) was 6 ± 1.9 µM; in the series on HCoV-229E [1] (setting [6]), 7.6 ± 1.8 µM. In addition, the “Cytotoxicity MCC” value in series [3] amounted to 32 µM. The same molecule came in with a CC50 in “in vitro” of 23 ± 3 µM.
`COC(=O)C[C@H](NC(=O)OCc1ccccc1)C(=O)N(CCNc1ccccc1)C1(C(=O)NCc2ccccc2)CCN(Cc2ccccc2)CC1` [Compound 57, Methyl(S)-4-((1-benzyl-4-benzylcarbamoylpiperidin-4-yl)(2-(phenylamino)ethyl)amino)-3-benzyloxycarbonylamino-4-oxobutanoate]: the figures for the EC50 in the series on HCoV-229E [1] (setting [5]) and in the series on HCoV-229E [1] (setting [6]) were 7.1 ± 0.9 µM and 10 µM, respectively. Also, the “Cytotoxicity MCC” value in series [3] was 40 µM. The CC50 in “in vitro” turned out to be 51 ± 9 µM.
Regarding `COC(=O)C[C@H](NC(=O)OCc1ccccc1)C(=O)N(CCNc1ccccc1)C1(C(=O)NCc2ccccc2)CCN(CCc2ccccc2)CC1` [Compound 58, Methyl(S)-4-((4-benzylcarbamoyl-1-phenethylpiperidin-4-yl)(2-(phenylamino)ethyl)amino)-3-benzyloxycarbonylamino-4-oxobutanoate], the values for the EC50 in the series with HCoV-229E [1] (setting [5]) and in the series with HCoV-229E [1] (setting [6]) were 5.4 ± 1.4 µM and 7.9 ± 1.9 µM, respectively. For the same molecule, the “Cytotoxicity MCC” value in series [3] was determined as 24 µM. Further, in the series “in vitro”, the CC50 turned out to be 20 ± 4 µM.
For `COC(=O)C[C@H](NC(=O)OCc1ccccc1)C(=O)N(Cc1ccc(C)cc1)C1(C(=O)NCc2ccccc2)CCN(CCc2ccccc2)CC1` [Compound 59, Methyl(S)-4-((4-benzylcarbamoyl-1-phenethylpiperidin-4-yl)(4-methylbenzyl)amino)-3-benzyloxycarbonylamino-4-oxobutanoate] the same measures were 5.1 ± 1 µM, 8.8 ± 0.7 µM, 16 µM and 15 ± 5 µM.
`CC(C)(C)OC(=O)NC(Cc1ccccc1)C(=O)N(Cc1ccccc1)C1(C(=O)NCc2ccccc2)CCN(Cc2ccc(Cl)cc2)CC1` (stereo not drawn) [Compound 61, Tert-butyl(1-(benzyl(4-benzylcarbamoyl-1-(4-chlorobenzyl)piperidin-4-yl)amino)-1-oxo-3-phenylpropan-2-yl)carbamate]: the EC50 came to 30 ± 7 µM with HCoV-229E [1] (setting [5]) and 36 ± 9 µM with HCoV-229E [1] (setting [6]). In addition, the “Cytotoxicity MCC” value in series [3] is above 100 µM. Moreover, the CC50 in “in vitro” is above 100 µM.
As to `COc1ccc(CN2CCC(C(=O)NCc3ccccc3)(N(Cc3ccccc3)C(=O)C(Cc3ccccc3)NC(=O)OC(C)(C)C)CC2)cc1` (stereo not drawn) [Compound 62, Tert-butyl(1-(benzyl(4-benzylcarbamoyl-1-(4-methoxybenzyl)piperidin-4-yl)amino)-1-oxo-3-phenylpropan-2-yl)carbamate], the EC50 in the series on HCoV-229E [1] (setting [5]) is 4.3 ± 0.4 µM; in the series with HCoV-229E [1] (setting [6]) it was 5.9 ± 1.8 µM. Moreover, in series [3], the “Cytotoxicity MCC” value is 40 µM. For the same molecule, the CC50 in the series “in vitro” stood at 28 µM.
Take `CC(C)(C)OC(=O)NC(Cc1ccccc1)C(=O)N(Cc1ccccc1)C1(C(=O)NCc2ccccc2)CCN(Cc2ccc([N+](=O)[O-])cc2)CC1` (stereo not drawn) [Compound 63, Tert-butyl(1-(benzyl(4-benzylcarbamoyl-1-(4-nitrobenzyl)piperidin-4-yl)amino)-1-oxo-3-phenylpropan-2-yl)carbamate]: the EC50 in the series with HCoV-229E [1] (setting [5]) amounted to 77 ± 9 µM. Also, the EC50 in the series on HCoV-229E [1] (setting [6]) amounted to 82 ± 15 µM. Besides, in series [2], the IC50 worked out at 196 ± 39 µM and the “IC50 on SARS-CoV-2 M^pro enzyme activity” value is listed as “only marginal activity”. In addition, in series [3], the “Cytotoxicity MCC” value is at least 100 µM. In addition, the CC50 in “in vitro” was above 100 µM.
As to `CCOC(=O)[C@H]1O[C@@H]1C(=O)N[C@@H](CC(C)C)C(=O)NCCC(C)C` [Compound E64d], the “inhibition of viral RNA synthesis” value with HCoV-229E [4] (compound addition delayed until 4 h p.i., HEL cells lysed at 16 h p.i., E64d 15 µM, bafilomycin 0.00625 µM) was found to be 46%.
As to `CC(C)C[C@H](NC(=O)OCc1ccccc1)C(=O)N[C@@H](C[C@@H]1CCNC1=O)C(O)S(=O)(=O)[O-].[Na+]` (stereo partly drawn) [GC376], the “inhibition of viral RNA synthesis” value with HCoV-229E [4] ([…], 33 15 µM, GC376 25 µM, GS-441524 20 µM, K22 15 µM) is listed as ~ 90%.

By EC50 is commonly meant the concentration needed to bring the measured effect to its halfway point. The term IC50 denotes the concentration that gives 50% inhibition. Lower therefore signals greater potency. What is called EC90 is the concentration at which the effect reaches the 90% level.
